Data taken from patent US20180228795A1, “COMBINATION THERAPY FOR CANCER” (Eli Lilly and Company, priority 2015, published 2018).

How the values were obtained:
Format in all cases: in vivo
PDX TNBC Model CTG-1340 = test: Antitumor effects in PDX mouse model of TNBC; settings: PDX model CTG-1340; A 10 mg/kg SC BID 3 days on/4 off ×4; B 7.5 mg/kg PO BID×28; versus vehicle
Description: (§1) Establish PDX tumor models from viable human tumor tissue and serially passage in immunocompromised female mice a limited number of times. Using tumor fragments harvested from donor host animals, perform unilateral subcutaneous implants from a specific passage of the PDX tumor model on the flanks of the experimental animals. When tumor volumes reach approximately 150-250 mm^3 in size, randomize the animals by treatment arm by randomization techniques well known in the art and place into their respective treatment groups using 1 animal per treatment group (3 animals in an untreated group). Formulate CHK1 inhibitor, 5-(5-(2-(3-aminopropoxy)-6-methoxyphenyl)-1H-pyrazol-3-ylamino)pyrazine-2-carbonitrile methanesulfonate hydrate, (Compound A) every 14 days in 20% captisol (dissolved in water) and administer subcutaneously twice daily at a dose of 10 mg/kg on days 1/2/3 of a weekly cycle for 4 weeks (SC, BID [3 days on/4 off]×4). Formulate the PI3K/mTOR dual inhibitor, 8-[5-(1-hydroxy-1-methylethyl)pyridin-3-yl]-1-[(2S)-2-methoxypropyl]-3-methyl-1,3-dihydro-2H-imidazo[4,5-c]quinolin-2-one, (Compound B) weekly in 1% (HEC)/0.25% Tween 80 (Polysorbate 80)/0.05% Dow-Corning Antifoam 1510-US and administer by oral gavage twice-daily for 28 days (PO, BID×28) at a dose of 7.5 mg/kg. Dose combination treatment animals with both compounds according to the schedule described above for monotherapy, and dose vehicle treatment animals with vehicle according to the schedule for Compound B.
(§2) Test the combination of Compound A and Compound B, as well as their respective monotherapies, in 40 PDX models (Table 1) of TNBC. Assess antitumor efficacy of the treatment groups by measuring tumor volume via caliper measurements twice a week during the course of the study. Measure body weight twice weekly during the course of the study as a general indicator of tolerability.
(§3) Capture tumor size and body weight twice per week. Estimate tumor volume (V) by using the formula: V=(π/6)×L×W^2 where L=larger of measured diameter and W=smaller perpendicular diameter. Calculate relative tumor volume using the tumor volume measurement taken nearest to the last day of dosing for each animal (T), divided by the baseline tumor volume for that animal (T0), which is the volume recorded on or just prior to the first day of dosing, Y=T/T0. Calculate % ΔT/ΔC values using the formula % ΔT/ΔC=100(YT−1)/(YC−1), whereby YT or YC=geometric mean relative volume of the compound treated group or the control group, respectively. Tumor growth inhibition is observed in those instances where the calculated values for % ΔT/ΔC are less than 100% whereby greater inhibition results in smaller % ΔT/ΔC values. If ΔT<0, then a tumor regression value is calculated instead of % ΔT/ΔC whereby % Regression=100(YT−1). Note that negative values indicate regression. We collectively refer to % ΔT/ΔC and % Regression as % Response.
(§4) Examine relative tumor volume (final volume divided by baseline volume) on the last day of treatment or the last day on which data from all three treatment groups and vehicle is available, if it is earlier than the last day of treatment and at least 14 days after baseline. Expected additive relative volume is determined using the Bliss method (Bliss, C. I., Ann Appl Biol, 1939; 26(3):585-615). Specifically, denoting Y=relative volume, YExp=(Y1*Y2)/YV, where YExp=expected additive relative volume, Y1 and Y2 are the relative volumes in the single agent groups (Compound A and Compound B), and YV is the relative volume in the vehicle group. A range of additivity is defined around the expected additive relative volume via upper and lower limits as follows:
(§5) Yupper=max(2*YExp,YExp+0.2)
(§6) Ylower=min(YExp/2,YExp−0.2)
(§7) The upper limit of the range is the larger of 2-fold above or 20% above the expected additive relative volume, and the lower limit is the smaller of 2-fold below or 20% below the expected additive relative volume. […]

PDX TNBC Model CTG-1106 = test: Antitumor effects in PDX mouse model of TNBC; settings: PDX model CTG-1106; A 10 mg/kg SC BID 3 days on/4 off ×4; B 7.5 mg/kg PO BID×28; versus vehicle
Description: as §1, §2, §3, §4, §5, §6, §7

PDX TNBC Model ST2057 = test: Antitumor effects in PDX mouse model of TNBC; settings: A 10 mg/kg SC BID 3 days on/4 off ×4, B 7.5 mg/kg PO BID×28, versus vehicle
Description: as §1, §2, §3, §4, §5, §6, §7

PDX TNBC Model ST231 = test: Antitumor effects in PDX mouse model of TNBC; settings: A 10 mg/kg SC BID 3 days on/4 off ×4, B 7.5 mg/kg PO BID×28, versus vehicle
Description: as §1, §2, §3, §4, §5, §6, §7

PDX TNBC Model ST518 = test: Antitumor effects in PDX mouse model of TNBC; settings: A 10 mg/kg SC BID 3 days on/4 off ×4, B 7.5 mg/kg PO BID×28, versus vehicle
Description: as §1, §2, §3, §4, §5, §6, §7

PDX TNBC Model ST575 = test: Antitumor effects in PDX mouse model of TNBC; settings: A 10 mg/kg SC BID 3 days on/4 off ×4, B 7.5 mg/kg PO BID×28, versus vehicle
Description: as §1, §2, §3, §4, §5, §6, §7

PDX TNBC Model CTG-0017 = test: Antitumor effects in PDX mouse model of TNBC; settings: PDX model CTG-0017; A 10 mg/kg SC BID 3 days on/4 off ×4; B 7.5 mg/kg PO BID×28; versus vehicle
Description: as §1, §2, §3, §4, §5, §6, §7

PDX TNBC Model CTG-1453 = test: Antitumor effects in PDX mouse model of TNBC; settings: PDX model CTG-1453; A 10 mg/kg SC BID 3 days on/4 off ×4; B 7.5 mg/kg PO BID×28; versus vehicle
Description: as §1, §2, §3, §4, §5, §6, §7

PDX TNBC Model ST1077 = test: Antitumor effects in PDX mouse model of TNBC; settings: A 10 mg/kg SC BID 3 days on/4 off ×4, B 7.5 mg/kg PO BID×28, versus vehicle
Description: as §1, §2, §3, §4, §5, §6, §7

PDX TNBC Model MAXF 508 = test: Antitumor effects in PDX mouse model of TNBC; settings: PDX model MAXF 508; A 10 mg/kg SC BID 3 days on/4 off ×4; B 7.5 mg/kg PO BID×28; versus vehicle
Description: as §1, §2, §3, §4, §5, §6, §7

PDX TNBC Model MAXF 583 = test: Antitumor effects in PDX mouse model of TNBC; settings: PDX model MAXF 583; A 10 mg/kg SC BID 3 days on/4 off ×4; B 7.5 mg/kg PO BID×28; versus vehicle
Description: as §1, §2, §3, §4, §5, §6, §7

PDX TNBC Model CTG-1153 = test: Antitumor effects in PDX mouse model of TNBC; settings: PDX model CTG-1153; A 10 mg/kg SC BID 3 days on/4 off ×4; B 7.5 mg/kg PO BID×28; versus vehicle
Description: as §1, §2, §3, §4, §5, §6, §7

PDX TNBC Model ST035 = test: Antitumor effects in PDX mouse model of TNBC; settings: A 10 mg/kg SC BID 3 days on/4 off ×4, B 7.5 mg/kg PO BID×28, versus vehicle
Description: as §1, §2, §3, §4, §5, §6, §7

PDX mouse models of TNBC = test: Antitumor effects across the panel of 40 PDX mouse models of TNBC; settings: range across PDX TNBC models of Table 4
Description: Establish PDX tumor models from viable human tumor tissue and serially passage in immunocompromised female mice a limited number of times. Using tumor fragments harvested from donor host animals, perform unilateral subcutaneous implants from a specific passage of the PDX tumor model on the flanks of the experimental animals. When tumor volumes reach approximately 150-250 mm^3 in size, randomize the animals by treatment arm by randomization techniques well known in the art and place into their respective treatment groups using 1 animal per treatment group (3 animals in an untreated group). […]
as §3, with “Calculate % ΔT/ΔC values using the formula % ΔT/ΔC=100(YT−1)/(YC−1), whereby YT or YC=geometric mean relative volume of the compound treated group or the control group, respectively.” left out, “Note that negative values indicate regression. We collectively refer to % ΔT/ΔC and % Regression as % Response.” left out

| Compound | % Rsp. (% ΔT/ΔC or % Regression) (PDX TNBC Model CTG-1340) | % Rsp. (% ΔT/ΔC or % Regression) (PDX TNBC Model CTG-1106) | % Rsp. (% ΔT/ΔC or % Regression) (PDX TNBC Model ST2057) | % Rsp. (% ΔT/ΔC or % Regression) (PDX TNBC Model ST231) | % Rsp. (% ΔT/ΔC or % Regression) (PDX TNBC Model ST518) | % Rsp. (% ΔT/ΔC or % Regression) (PDX TNBC Model ST575) | % Rsp. (% ΔT/ΔC or % Regression) (PDX TNBC Model CTG-0017) | % Rsp. (% ΔT/ΔC or % Regression) (PDX TNBC Model CTG-1453) | % Rsp. (% ΔT/ΔC or % Regression) (PDX TNBC Model ST1077) | % Rsp. (% ΔT/ΔC or % Regression) (PDX TNBC Model MAXF 508) | % Rsp. (% ΔT/ΔC or % Regression) (PDX TNBC Model MAXF 583) | % Rsp. (% ΔT/ΔC or % Regression) (PDX TNBC Model CTG-1153) | % Rsp. (% ΔT/ΔC or % Regression) (PDX TNBC Model ST035) | efficacy values, % response, range over the models (PDX mouse models of TNBC) |
| --- | --- | --- | --- | --- | --- | --- | --- | --- | --- | --- | --- | --- | --- | --- |
| COc1cccc(OCCCN)c1-c1cc(Nc2cnc(C#N)cn2)n[nH]1.CS(=O)(=O)O [Compound A, 5-(5-(2-(3-aminopropoxy)-6-methoxyphenyl)-1H-pyrazol-3-ylamino)pyrazine-2-carbonitrile methanesulfonate hydrate] | 41.0% | −39.0% | 44.8% | −74.6% | −23.4% | −87.5% | 52.3% | 2.3% | 0.0% | −100.0% | 9.6% | −23.6% | 2.1% | 126.1% to −100 |
| CO[C@@H](C)Cn1c(=O)n(C)c2cnc3ccc(-c4cncc(C(C)(C)O)c4)cc3c21 [Compound B, 8-[5-(1-hydroxy-1-methylethyl)pyridin-3-yl]-1-[(2S)-2-methoxypropyl]-3-methyl-1,3-dihydro-2H-imidazo[4,5-c]quinolin-2-one] | 17.1% | −31.0% | 26.9% | 76.8% | 66.5% | 51.3% | 28.1% | −6.9% | 9.1% | 41.3% | 121.1% | 86.5% | 54.0% | 163% to −31 |
